One data set relates to KKAy mice. Description: Blood glucose and blood lipid (triglyceride) lowering action in mice. The format is in vivo. The settings on record: Mus musculus, 4TO7, po, 4 to 7 days; for response vs control in vivo at 0.01 %: 0.01% in powder diet; for response vs control in vivo at 0.03 %: 0.03% in powder diet. The text has this: The test compound was mixed with a powder diet (CE-2, CLEA JAPAN, INC.) at a proportion of 0.01% (0.03% for the compounds of Examples 1, 2, 12, 81, 94, 96, 129 and 143, and 0.005% for the compounds of Examples 28, 30 and 37) and freely given to KKAy mice (9 to 14-week-old, 5 mice per group) which are obesity non-insulin-dependent diabetes (type-2 diabetes) models, for 4 to 7 days. During this period, water was freely given. The blood was drawn from the orbital venous plexus. Glucose and triglyceride in the plasma separated from the blood were quantitated using L Type Wako Glu2 (Wako Pure Chemical Industries, Ltd.) and L Type Wako TG·H (Wako Pure Chemical Industries, Ltd.), respectively, according to an enzyme method.

The target of another data set is T1, PPARγ-RXRα heterodimer (Homo sapiens, UniProt P37231).
T1 construct: expressed in transfected cells; host or cells: CHO-K1 (PPARγ:RXRα:4ERPP/CHO-K1)
T1 sequence (P37231 1-477 isoform P37231-2): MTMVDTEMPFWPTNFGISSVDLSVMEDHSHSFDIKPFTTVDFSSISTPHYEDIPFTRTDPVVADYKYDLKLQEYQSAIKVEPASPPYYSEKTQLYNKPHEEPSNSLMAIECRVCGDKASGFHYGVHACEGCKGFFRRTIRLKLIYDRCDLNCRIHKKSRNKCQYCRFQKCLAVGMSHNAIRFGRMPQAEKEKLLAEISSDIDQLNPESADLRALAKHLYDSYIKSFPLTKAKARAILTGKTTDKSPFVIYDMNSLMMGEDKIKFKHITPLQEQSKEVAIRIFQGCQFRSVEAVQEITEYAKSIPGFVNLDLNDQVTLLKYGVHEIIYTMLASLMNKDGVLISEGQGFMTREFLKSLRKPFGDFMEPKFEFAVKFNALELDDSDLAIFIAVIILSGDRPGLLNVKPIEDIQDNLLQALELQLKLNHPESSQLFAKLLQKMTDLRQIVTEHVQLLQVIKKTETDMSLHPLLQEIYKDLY
T1 sequence (P19793 1-462 partner): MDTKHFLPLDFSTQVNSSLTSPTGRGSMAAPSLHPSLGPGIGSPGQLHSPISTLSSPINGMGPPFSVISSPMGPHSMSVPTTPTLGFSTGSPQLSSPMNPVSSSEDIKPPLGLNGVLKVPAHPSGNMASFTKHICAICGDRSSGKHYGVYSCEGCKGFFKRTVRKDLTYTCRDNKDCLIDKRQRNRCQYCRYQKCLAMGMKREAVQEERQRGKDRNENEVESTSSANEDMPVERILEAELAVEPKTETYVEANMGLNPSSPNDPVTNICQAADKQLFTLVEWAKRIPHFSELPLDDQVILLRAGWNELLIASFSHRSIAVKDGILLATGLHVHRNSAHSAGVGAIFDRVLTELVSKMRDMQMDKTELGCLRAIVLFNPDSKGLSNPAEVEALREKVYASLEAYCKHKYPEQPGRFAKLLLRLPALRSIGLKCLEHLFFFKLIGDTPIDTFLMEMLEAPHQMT
The data set can be described thus: PPARγ-RXRα heterodimer ligand activity (luciferase reporter, PPARγ:RXRα:4ERPP/CHO-K1 cells). The format is cell-based. As to conditions: concentration showing 50% of the maximum luciferase induction rate; CHO-K1 reporter cells, one day incubation. How it is done: The PPARγ:RXRα:4ERPP/CHO-K1 cells described in WO03/099793 were cultured in a Ham F12 medium [manufactured by Life Technologies, Inc., US] containing 10% calf fetal serum [manufactured by Life Technologies, Inc., US], sown in a 96-well white plate (manufactured by Corning Coster Corporation, US] at 1×10^4 cells/well, and incubated overnight in a carbon dioxide gas incubator at 37° C.
Then, the medium was removed from the 96 well white plate, 45 μl of Ham F12-medium containing 0.1% fatty acid-free bovine serum albumin (BSA) and a test compound (5 μl) were added, and the cells were incubated for one day in a carbon dioxide gas incubator at 37° C. The medium was removed, 20 μl of PicaGene 7.5 (manufactured by Wako Pure Chemical Industries, Ltd.) 2-fold diluted with HBSS (HANKS' BALANCED SALT SOLUTION) [manufactured by BIO WHITTAKER, US] was added. After stirring, the luciferase activity was determined using the 1420 ARVO Multilabel Counter [manufactured by PerkinElmer, US].
The induction rate was calculated from the luciferase activity of each test compound based on the luciferase activity of the test compound non-administration group as 1. The test compound concentration and the induction rate were analyzed by PRISM [manufactured by GraphPad Software, Inc., US] to calculate EC50 value (compound concentration showing 50% of the maximum value of induction rate) of the test compound.
(A reporter such as luciferase makes a cellular process visible.)

[1] abbreviates: plasma glucose relative to non-administration group = 100%, read-out: hypoglycemic action (%).
[2] abbreviates: plasma triglyceride relative to non-administration group = 100%, read-out: hypolipidemic action (%).

Each structure is given as a SMILES string. Like-named read-outs stand apart in the source and are kept apart here.

Drawing on patent US20100041892A1, “Therapeutic agent for diabetes” (priority 2005, published 2010), this text covers melting point, response vs control in vivo and EC50 for 15 compounds.

In turn, `CC(C)CCS(=O)(=O)NC(=O)/C=C/c1cc(OCC2CC2)nn1Cc1ccc(C(F)(F)F)cc1Cl` [Example 26, (2E)-3-[1-[2-chloro-4-(trifluoromethyl)benzyl]-3-(cyclopropylmethoxy)-1H-pyrazol-5-yl]-N-[(3-methylbutyl)sulfonyl]acrylamide] returned a melting point of 155.5 to 157.5 °C. The response vs control in vivo at 0.01 % in the data set on KKAy mice (setting [1]) is 50%. In addition, the response vs control in vivo at 0.01 % in the data set with KKAy mice (setting [2]) is 62%. On PPARγ-RXRα heterodimer, this compound yielded an EC50 of 4.6 nM.

Compound `CCCCCS(=O)(=O)NC(=O)CCc1cc(OCCCC)nn1Cc1ccc(Cl)cc1Cl` [Example 97, 3-[3-butoxy-1-(2,4-dichlorobenzyl)-1H-pyrazol-5-yl]-N-(pentylsulfonyl)propanamide] displayed a melting point of 104 to 105 °C. Further, the response vs control in vivo at 0.01 % with KKAy mice (setting [1]) worked out at 58%. Besides, the response vs control in vivo at 0.01 % with KKAy mice (setting [2]) turned out to be 64%. This compound also came in with a 50% effective concentration (EC50) on PPARγ-RXRα heterodimer of 7.5 nM.

With `CC(C)CCS(=O)(=O)NC(=O)/C=C/c1cc(OC(C)C)nn1Cc1ccc(C(F)(F)F)cc1Cl` [Example 112, (2E)-3-{1-[2-chloro-4-(trifluoromethyl)benzyl]-3-isopropoxy-1H-pyrazol-5-yl}-N-[(3-methylbutyl)sulfonyl]acrylamide], the response vs control in vivo at 0.01 % was 53% in the data set with KKAy mice (setting [1]) and 70% in the data set on KKAy mice (setting [2]). Also, the half-maximal effective concentration (EC50) at PPARγ-RXRα heterodimer was determined as 8.3 nM.

`CCCCOC(=O)NS(=O)(=O)CCc1cc(OCCCC)nn1Cc1ccc(Cl)cc1Cl` [Example 129, butyl ({2-[3-butoxy-1-(2,4-dichlorobenzyl)-1H-pyrazol-5-yl]ethyl}sulfonyl)carbamate] returned a melting point of 108 to 111 °C. Besides, the response vs control in vivo at 0.03 % in the data set with KKAy mice (setting [1]) came to 45%. The response vs control in vivo at 0.03 % with KKAy mice (setting [2]) came out at 76%. This compound also returned a concentration giving a half-maximal response (EC50) at PPARγ-RXRα heterodimer of 10 nM.

Take `CCCCCS(=O)(=O)NC(=O)/C=C/c1cc(C2CC2)nn1Cc1ccc(C(F)(F)F)cc1Cl` [Example 155, (2E)-3-{1-[2-chloro-4-(trifluoromethyl)benzyl]-3-cyclopropyl-1H-pyrazol-5-yl}-N-(pentylsulfonyl)acrylamide]: the response vs control in vivo at 0.01 % in the data set on KKAy mice (setting [1]) and with KKAy mice (setting [2]) was 70% each time. The compound also displayed an EC50 at PPARγ-RXRα heterodimer of 12 nM.

As to `COCCOc1ccc(CCCOC(=O)NS(=O)(=O)NCCOC(C)C)c(Oc2ncc(C(F)(F)F)cc2Cl)c1` [Example 204, 3-[2-{[3-chloro-5-(trifluoromethyl)pyridin-2-yl]oxy}-4-(2-methoxyethoxy)phenyl]propyl {[(2-isopropoxyethyl)amino]sulfonyl}carbamate], the values for the response vs control in vivo at 0.01 % in the data set with KKAy mice (setting [1]) and with KKAy mice (setting [2]) were 52% and 36%, respectively. The same compound gave an EC50 on PPARγ-RXRα heterodimer of 0.92 nM.

On to `CCCCCS(=O)(=O)NC(=O)C(Cc1ccc(OCCOC)cc1Oc1ncc(C(F)(F)F)cc1Cl)OC` (stereo not drawn) [Example 210, 3-[2-{[3-chloro-5-(trifluoromethyl)pyridin-2-yl]oxy}-4-(2-methoxyethoxy)phenyl]-2-methoxy-N-(pentylsulfonyl)propanamide], for which the response vs control in vivo at 0.01 % is 58% in the data set on KKAy mice (setting [1]) and 69% in the data set on KKAy mice (setting [2]). For the same compound, the EC50 at PPARγ-RXRα heterodimer was found to be 6.7 nM.

For the compound `CCCCCS(=O)(=O)NC(=O)/C(C)=C/c1ccc(OCCOC)cc1Oc1ncc(C(F)(F)F)cc1Cl` [Example 211, (2E)-3-[2-{[3-chloro-5-(trifluoromethyl)pyridin-2-yl]oxy}-4-(2-methoxyethoxy)phenyl]-2-methyl-N-(pentylsulfonyl)acrylamide], the response vs control in vivo at 0.01 % stood at 49% in the data set on KKAy mice (setting [1]) and 46% in the data set with KKAy mice (setting [2]). For the same compound, the midpoint of the response at PPARγ-RXRα heterodimer, the EC50, lay at 5.2 nM.

For the compound `CCCCCNS(=O)(=O)NC(=O)CCc1ccc(OCCOC)cc1Oc1ncc(C(F)(F)F)cc1Cl` [Example 214, 3-[2-{[3-chloro-5-(trifluoromethyl)pyridin-2-yl]oxy}-4-(2-methoxyethoxy)phenyl]-N-[(pentylamino)sulfonyl]propanamide], the response vs control in vivo at 0.01 % was 56% in the data set with KKAy mice (setting [1]) and 65% with KKAy mice (setting [2]). The compound further showed a half-maximal effective concentration (EC50) on PPARγ-RXRα heterodimer of 1.1 nM.

As for `CCCCCS(=O)(=O)NC(=O)/C=C/c1ccc(OCCO)cc1Oc1ncc(C(F)(F)F)cc1Cl` [Example 218, (2E)-3-[2-{[3-chloro-5-(trifluoromethyl)pyridin-2-yl]oxy}-4-(2-hydroxyethoxy)phenyl]-N-(pentylsulfonyl)acrylamide monohydrate], the response vs control in vivo at 0.01 % in the data set on KKAy mice (setting [1]) came out at 81%; in the data set with KKAy mice (setting [2]), 129%. At PPARγ-RXRα heterodimer, this compound yielded a concentration giving a half-maximal response (EC50) of 80 nM.

For `CCCCCS(=O)(=O)NC(=O)/C=C/c1ccc(OCC(C)(C)O)cc1Oc1ncc(C(F)(F)F)cc1Cl` [Example 250, (2E)-3-[2-{[3-chloro-5-(trifluoromethyl)pyridin-2-yl]oxy}-4-(2-hydroxy-2-methylpropoxy)phenyl]-N-(pentylsulfonyl)acrylamide], the response vs control in vivo at 0.01 % in the data set on KKAy mice (setting [1]) was found to be 78%; in the data set on KKAy mice (setting [2]), 121%. A half-maximal response at PPARγ-RXRα heterodimer (EC50) required 7.2 nM.

With `CCCCCS(=O)(=O)NC(=O)C(C)(C)Cc1ccc(OCCOC)cc1Oc1ncc(C(F)(F)F)cc1Cl` [Example 252, 3-[2-{[3-chloro-5-(trifluoromethyl)pyridin-2-yl]oxy}-4-(2-methoxyethoxy)phenyl]-2,2-dimethyl-N-(pentylsulfonyl)propanamide], the response vs control in vivo at 0.01 % in the data set with KKAy mice (setting [1]) came out at 46%; in the data set with KKAy mice (setting [2]), 20%. The compound further registered an EC50 at PPARγ-RXRα heterodimer of 3.1 nM.

On to `CCCCCS(=O)(=O)NC(=O)/C=C/c1ccc(OCCOC2CC2)cc1Oc1ncc(C(F)(F)F)cc1Cl` [Example 424, (2E)-3-{2-{[3-chloro-5-(trifluoromethyl)pyridin-2-yl]oxy}-4-[2-(cyclopropyloxy)ethoxy]phenyl}-N-(pentylsulfonyl)acrylamide], for which the response vs control in vivo at 0.01 % in the data set with KKAy mice (setting [1]) is 70%; in the data set on KKAy mice (setting [2]), 18%. Also, the EC50 at PPARγ-RXRα heterodimer stood at 6.2 nM.

On to `CC(C)OCCNS(=O)(=O)NC(=O)OCCCc1ccc(OCCO)cc1Oc1ncc(C(F)(F)F)cc1Cl` [Example 439, 3-[2-{[3-chloro-5-(trifluoromethyl)pyridin-2-yl]oxy}-4-(2-hydroxyethoxy)phenyl]propyl {[(2-isopropoxyethyl)amino]sulfonyl}carbamate], for which the response vs control in vivo at 0.01 % amounted to 49% with KKAy mice (setting [1]) and 34% with KKAy mice (setting [2]). On PPARγ-RXRα heterodimer, this compound had a concentration giving a half-maximal response (EC50) of 1.8 nM.

For `CC(C)Oc1ccc(CCCOC(=O)NS(=O)(=O)NCCc2ccccn2)c(Oc2ncc(C(F)(F)F)cc2Cl)c1` [Example 444, 3-(2-{[3-chloro-5-(trifluoromethyl)pyridin-2-yl]oxy}-47 isopropoxyphenyl)propyl {[(2-pyridin-2-ylethyl)amino]sulfonyl}carbamate], the response vs control in vivo at 0.01 % was 55% with KKAy mice (setting [1]) and 52% with KKAy mice (setting [2]). For the same compound, it took 3.4 nM to reach a half-maximal effect on PPARγ-RXRα heterodimer (EC50).

In general, melting point refers to the temperature of the solid-liquid transition. The term EC50 denotes the concentration needed to bring the measured effect to its halfway point. Read a high EC50 as weaker potency.
